The target of one assay is T1, ALX (Homo sapiens, UniProt P25090).
T1 construct: host or cells: HEK293 flip-in cells
T1 sequence (P25090 1-351): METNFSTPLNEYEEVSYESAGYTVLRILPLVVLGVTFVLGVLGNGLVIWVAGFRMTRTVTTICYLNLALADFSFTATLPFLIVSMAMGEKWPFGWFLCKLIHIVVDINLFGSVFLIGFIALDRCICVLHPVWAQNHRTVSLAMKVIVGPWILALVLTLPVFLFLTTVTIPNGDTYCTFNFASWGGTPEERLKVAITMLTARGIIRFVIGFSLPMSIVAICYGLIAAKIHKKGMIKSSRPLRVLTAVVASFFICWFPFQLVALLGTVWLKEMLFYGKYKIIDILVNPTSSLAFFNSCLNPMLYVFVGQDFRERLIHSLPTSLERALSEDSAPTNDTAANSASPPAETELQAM
Nature of the assay: Ca2+ imaging (Fura-2AM) in HEK293 cells transfected with ALX cDNA. It is filed as cell-based. Conditions: HEK293 cells expressing ALX. From the text:
FIG. 10A-FIG. 10C. Characterization of intracellular Ca^2+ changes in HEK293 cells expressing ChemR23, GPR32, and ALX. Ca^2+ imaging with Fura-2AM indicator showing iCa^2+ levels in HEK293 cells transfected with ChemR23 (FIG. 10A), GPR32 (FIG. 10B), and ALX (FIG. 10C) cDNAs. Note that NPD1 fails to elicit iCa^2+ increase in HEK293 cells expressing ChemR23, GPR32, and ALX. […] ATP is included as a positive control. *P<0.05, compared with baseline n=44˜97 cells from 3 cultures. All the data are expressed as mean±s.e.m.
HEK cell culture and transfection. HEK293 flip-in cell line was purchased from Duke Cell Culture Facility. Cells were cultured in high glucose (4.5 g/L) Dulbecco's Modified Eagle's Medium containing 10% (v/v) fetal bovine serum (Gibco). Transfection (2 μg cDNA) was performed with Lonza electroporation (Lonza) at 70% confluency and the transfected cells were cultured in the same growth medium for 48 h before use. The hGPR37-V5 pLenti304 plasmids were obtained from DNASU (Tempe, AZ), and hGPR32, hChemR23 and hALX pcDNA3 plasmids were provided by Dr. Serhan from Harvard Medical School, Boston.
(§1) Calcium imaging. HEK 293 cells, with or without transfection of Gpr37, GPR32, ChemR23 or ALX1 cDNA, were loaded with 5 μM Fura-2AM (Invitrogen) for 1 hour and then were resuspended in normal external buffer (140 NaCl, 5 KCl, 2 CaCl2, 2 MgCl2, 10 HEPES, in mM, titrated to pH 7.4 with NaOH) or external Ca^2+-free buffer (140 NaCl, 2 MgCl2, 5 EGTA, 10 HEPES, in mM, titrated to pH 7.4 with NaOH). Peritoneal macrophages, collected from WT and Gpr37 KO mice, were loaded with 5 μM […] (Invitrogen) for 1 hour and then were resuspended in normal external buffer. Images of the HEK 293 cells and macrophages with the excitation wavelength of 340 nm and 380 nm were captured with a cooled Digital CMOS camera (ORCA-Flash 4.0, Hamamatsu Photonics K.K, Japan). The ratio of fluorescence intensity of the two wavelengths in each experiment was analyzed using MetaFluor (Molecular Devices). The Shutter speed and wavelength was controlled by Lambda DG-4 system (Sutter instrument Co., Novato, CA). Values from each of the experiments were normalized to the baseline ratio of 340/380 nm.
Several SPM receptors have been identified such as ChemR23 for RvE1, GPR32 for RvD1, and ALX for lipoxin A. We transfected human cDNAs of ChemR23, GPR32, and ALX in HEK293 cells and checked Ca^2+ responses following the treatment of each SPM.

The subject of another assay is pMΦ. In words: ELISA of cytokines in zymosan-stimulated pMΦ cultures. In kind it is cell-based, mouse. As to the method:
FIG. 14A-FIG. 14C. NPD1 regulates cytokine expression in cultured macrophages via GPR37. ELISA showing the expression of pro-inflammatory cytokine IL-1β (FIG. 14A) and anti-inflammatory cytokines IL-10 (FIG. 14B) and TGF-β (FIG. 14C) in pMΦ from WT and Gpr37^−/− mice. pMΦ were stimulated with 100 μg/mL zymosan for 24 h. Note that NPD1 differentially regulates the expression of pro- and anti-inflammatory cytokines. *P<0.05; n=3 cultures/group. All the data are mean±SEM.
ELISA. Mouse ELISA kits for IL-1β, TGF-β and IL10 were purchased from R&D system (Minneapolis, MN, Catalog: MLB00C for IL-1β, Catalog: MB100B for TGF-β, and Catalog: M1000B for IL-10). ELISA was performed using culture medium and hindpaw skin tissues. Cultured cells and tissues were homogenized in a lysis buffer containing protease and phosphatase inhibitors. For each Elisa assay, 50 μg proteins or 50 μL of culture medium were used. ELISA was conducted according to manufacturer's instructions. The standard curve was included in each experiment.
(§2) Peritoneal macrophage culture. Peritoneal macrophages were collected by peritoneal lavage with 10 ml warm PBS containing of 1 mM EDTA. Cells were incubated in DMEM supplemented with 10% FBS at 37° C. for 2 h in petri dish and washed with PBS to eliminate non-adherent cells. The adherent cells were used as peritoneal macrophages. Peritoneal macrophages were used after 3 days of culture.
(ELISA stands for enzyme-linked immunosorbent assay.)

Another assay deals with GPR37. In words: Ca2+ imaging (Fluo-4AM) in peritoneal macrophages (pMΦ) from WT and Gpr37−/− mice. In kind it is cell-based, mouse. The following applies: 30 nM; Gpr37-deficient pMΦ. As to the method: as §2, §1
Next, we conducted GPR37-mediated Ca^2+ imaging in native pMΦ from WT and Gpr37^−/− mice using Fluo-4AM as a Ca^2+ indicator, since this dye works better than Fura-2AM for pMΦ. […] As compared to iCa^2+ increase in GPR37-expressing HEK293 cells, NPD1 trigger a slow-onset but more persistent Ca^2+ response in pMΦ (FIG. 2B and FIG. 2G). A relatively rapid calcium response in HEK293 cells may result from over-expression of GPR37. A sustained iCa^2+ increase in pMΦ may result from the expression of transient receptor potential (TRP) ion channels in these immune cells. It is noteworthy that macrophages express TRPV2 or TRPM2, which are involved in phagocytosis during bacterial infection. […] NPD1-triggered iCa^2+ increase in pMΦ is also Gi-dependent, since PTX blocked this increase (FIG. 2H). For comparison, ATP-evoked iCa^2+ increase was not altered in GPR37-deficient pMΦ (FIG. 2H).

The mark [1] stands for this setting: pMΦ cultures, zymosan 100 μg/mL for 24 h.

Regarding `CC/C=C\C[C@H](O)\C=C/C=C/C=C/[C@H](O)C/C=C\C/C=C\CCC(=O)O` [NPD1, neuroprotectin D1], the “iCa2+ increase / Ca2+ response” value at ALX is “failed to elicit iCa^2+ increase”. Besides, in the assay with pMΦ (setting [1]), the IL-1β levels result was “suppressed”, the IL-10 levels result is on record as “increased” and the TGF-β levels result is “increased”. In the assay with pMΦ (pMΦ from WT and Gpr37−/− mice), the “dependence of cytokine effects on GPR37” value is “required GPR37”. Also, the “iCa2+ increase” value in the assay with GPR37 was “abolished”.

The values above are taken from patent publication US12521356B2, “Compositions and methods for treating pain, inflammation, infection, malaria, and sepsis” (Duke University, priority 2018, dated 2026).
